Laboratory results from ChEMBL document CHEMBL2413072, “Synthesis and in vitro anticancer studies of novel C-2 arylidene congeners of lantadenes” (2013).

What was measured:
Assay type in all cases: functional
NCI-H23 [1] = assay: Growth inhibition of human NCI-H23 cells by sulforhodamine B assay
OVCAR-8 = assay: Growth inhibition of human OVCAR8 cells assessed as cell growth at 10^-8 M by sulforhodamine B assay; settings: read-out: Activity
SNB-75 = assay: Growth inhibition of human SNB75 cells assessed as cell growth at 10^-4 M by sulforhodamine B assay; settings: read-out: Activity
SK-MEL-2 = assay: Growth inhibition of human SK-MEL-2 cells assessed as cell growth at 10^-6 M by sulforhodamine B assay; settings: read-out: Activity
NCI-H522 = assay: Growth inhibition of human NCI-H522 cells assessed as cell growth at 10^-4 M by sulforhodamine B assay; settings: read-out: Activity
TK-10 = assay: Growth inhibition of human TK10 cells assessed as cell growth at 10^-7 M by sulforhodamine B assay; settings: read-out: Activity
SR = assay: Growth inhibition of human SR cells assessed as cell growth at 10^-8 M by sulforhodamine B assay; settings: read-out: Activity
MDA-MB-468 [2] = assay: Growth inhibition of human MDA-MB-468 cells assessed as cell growth at 10^-6 M by sulforhodamine B assay; settings: read-out: Activity
SF-295 = assay: Growth inhibition of human SF295 cells assessed as cell growth at 10^-8 M by sulforhodamine B assay; settings: read-out: Activity
COLO 205 = assay: Growth inhibition of human COLO205 cells assessed as cell growth at 10^-8 M by sulforhodamine B assay; settings: read-out: Activity
SF-268 = assay: Growth inhibition of human SF268 cells by sulforhodamine B assay
786-0 = assay: Growth inhibition of human 786-0 cells assessed as cell growth at 10^-4 M by sulforhodamine B assay; settings: read-out: Activity
[3] = Growth inhibition of human HCC2998 cells assessed as cell growth at 10^-7 M by sulforhodamine B assay; settings: HCC 2998, read-out: Activity
NCI-H23 [4] = assay: Growth inhibition of human NCI-H23 cells assessed as cell growth at 10^-8 M by sulforhodamine B assay; settings: read-out: Activity
[5] = Growth inhibition of human HCC2998 cells assessed as cell growth at 10^-6 M by sulforhodamine B assay; settings: HCC 2998, read-out: Activity
[6] = Growth inhibition of human Hs 578T cells assessed as cell growth at 10^-6 M by sulforhodamine B assay; settings: read-out: Activity
LOX IMVI = assay: Growth inhibition of human LOXIMVI cells assessed as cell growth at 10^-8 M by sulforhodamine B assay; settings: read-out: Activity
A549 = assay: Growth inhibition of human A549/ATCC cells assessed as cell growth at 10^-8 M by sulforhodamine B assay; settings: read-out: Activity
MDA-MB-435 = assay: Growth inhibition of human MDA-MB-435 cells assessed as cell growth at 10^-4 M by sulforhodamine B assay; settings: read-out: Activity
[7] = Growth inhibition of human NCI-ADR-RES cells by sulforhodamine B assay
MDA-MB-468 [8] = assay: Growth inhibition of human MDA-MB-468 cells by sulforhodamine B assay
CAKI-1 [9] = assay: Growth inhibition of human CAKI-1 cells assessed as cell growth at 10^-6 M by sulforhodamine B assay; settings: read-out: Activity
HL-60(TB) = assay: Growth inhibition of human HL-60(TB) cells assessed as cell growth at 10^-6 M by sulforhodamine B assay; settings: read-out: Activity
MOLT-4 = assay: Growth inhibition of human MOLT4 cells assessed as cell growth at 10^-6 M by sulforhodamine B assay; settings: read-out: Activity
ACHN [10] = assay: Growth inhibition of human ACHN cells assessed as cell growth at 10^-6 M by sulforhodamine B assay; settings: read-out: Activity
KM12 = assay: Growth inhibition of human KM12 cells assessed as cell growth at 10^-6 M by sulforhodamine B assay; settings: read-out: Activity
SK-OV-3 = assay: Growth inhibition of human SKOV3 cells assessed as cell growth at 10^-8 M by sulforhodamine B assay; settings: read-out: Activity
ACHN [11] = assay: Growth inhibition of human ACHN cells assessed as cell growth at 10^-4 M by sulforhodamine B assay; settings: read-out: Activity
HT-29 = assay: Growth inhibition of human HT-29 cells assessed as cell growth at 10^-4 M by sulforhodamine B assay; settings: read-out: Activity
BT-549 = assay: Growth inhibition of human BT549 cells assessed as cell growth at 10^-4 M by sulforhodamine B assay; settings: read-out: Activity
CAKI-1 [12] = assay: Growth inhibition of human CAKI-1 cells assessed as cell growth at 10^-7 M by sulforhodamine B assay; settings: read-out: Activity
HCT-116 = assay: Growth inhibition of human HCT116 cells assessed as cell growth at 10^-7 M by sulforhodamine B assay; settings: read-out: Activity
OVCAR-3 = assay: Growth inhibition of human OVCAR3 cells assessed as cell growth at 10^-6 M by sulforhodamine B assay; settings: read-out: Activity
SF-539 [13] = assay: Growth inhibition of human SF539 cells assessed as cell growth at 10^-4 M by sulforhodamine B assay; settings: read-out: Activity
HOP-92 = assay: Growth inhibition of human HOP92 cells assessed as cell growth at 10^-7 M by sulforhodamine B assay; settings: read-out: Activity
IGROV-1 = assay: Growth inhibition of human IGROV1 cells assessed as cell growth at 10^-6 M by sulforhodamine B assay; settings: read-out: Activity
SF-539 [14] = assay: Growth inhibition of human SF539 cells assessed as cell growth at 10^-6 M by sulforhodamine B assay; settings: read-out: Activity
HCT-15 = assay: Growth inhibition of human HCT15 cells by sulforhodamine B assay
NCI-H226 = assay: Growth inhibition of human NCI-H226 cells assessed as cell growth at 10^-8 M by sulforhodamine B assay; settings: read-out: Activity
RXF 393 = assay: Growth inhibition of human RXF393 cells assessed as cell growth at 10^-6 M by sulforhodamine B assay; settings: read-out: Activity
[15] = Growth inhibition of human NCI-ADR-RES cells assessed as cell growth at 10^-6 M by sulforhodamine B assay; settings: read-out: Activity
SNB-19 = assay: Growth inhibition of human SNB19 cells by sulforhodamine B assay
[16] = read-out: LC50 (the source's name)
[17] = read-out: pLC50 (the source's name) (converted)

For `CC(C)=CC(=O)O[C@@H]1CC(C)(C)C[C@H]2C3=CC[C@@H]4[C@@]5(C)CC[C@H](O)C(C)(C)[C@@H]5CC[C@@]4(C)[C@]3(C)CC[C@@]12C(=O)O` [Reduced Lantadene B], the GI50 (NCI-H23 [1]; read-out: GI50) was 7.24 µM, the CC50 (NCI-H23 [1]; [16]) was 84 µM and the TGI (NCI-H23 [1]; read-out: TGI) was 26.9 µM. The GI50 (NCI-H23 [1]; read-out: pGI50 (converted)) was 7.24 µM, the CC50 (NCI-H23 [1]; [17]) was 83.2 µM and the TGI (NCI-H23 [1]; read-out: pTGI (converted)) was 26.9 µM. The growth at 0.01 µM (OVCAR-8) was 101%, the growth at 100 µM (SNB-75) was -38% and the growth at 1 µM (SK-MEL-2) was 107%. For the same molecule, the growth at 100 µM (NCI-H522) was -64%, the growth at 0.1 µM (TK-10) was 93% and the growth at 0.01 µM (SR) was 107%. For the same molecule, the growth at 1 µM (MDA-MB-468 [2]) was 77%, the growth at 0.01 µM (SF-295) was 95% and the growth at 0.01 µM (COLO 205) was 107%. The GI50 (SF-268; read-out: GI50) was 5.87 µM, the LC50 (SF-268; read-out: LC50) was 97.2 µM and the TGI (SF-268; read-out: TGI) was 26.1 µM. For the same molecule, the GI50 (SF-268; read-out: pGI50 (converted)) was 5.89 µM, the LC50 (SF-268; read-out: pLC50 (converted)) was 97.7 µM and the TGI (SF-268; read-out: pTGI (converted)) was 26.3 µM. It also gave a growth at 100 µM (786-0) of -73%, a growth at 0.1 µM [3] of 99% and a growth at 0.01 µM (NCI-H23 [4]) of 95%. The growth at 1 µM [5] was 96%, the growth at 1 µM [6] was 92% and the growth at 0.01 µM (LOX IMVI) was 98%. It also gave a growth at 0.01 µM (A549) of 91%, a growth at 100 µM (MDA-MB-435) of -26% and a GI50 ([7]; read-out: GI50) of 5.83 µM. The CC50 [7, 16] was greater than 100 µM, the TGI ([7]; read-out: TGI) was 35.9 µM and the GI50 ([7]; read-out: pGI50 (converted)) was 5.89 µM. For the same molecule, the CC50 [7, 17] was greater than 100 µM, the TGI ([7]; read-out: pTGI (converted)) was 36.3 µM and the GI50 (MDA-MB-468 [8]; read-out: GI50) was 4.17 µM. The CC50 (MDA-MB-468 [8]; [16]) was 57.1 µM, the TGI (MDA-MB-468 [8]; read-out: TGI) was 20.2 µM and the GI50 (MDA-MB-468 [8]; read-out: pGI50 (converted)) was 4.17 µM. It also gave a CC50 (MDA-MB-468 [8]; [17]) of 57.5 µM, a TGI (MDA-MB-468 [8]; read-out: pTGI (converted)) of 20 µM and a growth at 1 µM (CAKI-1 [9]) of 85%. For the same molecule, the growth at 1 µM (HL-60(TB)) was 96%, the growth at 1 µM (MOLT-4) was 78% and the growth at 1 µM (ACHN [10]) was 64%. The growth at 1 µM (KM12) was 48%, the growth at 0.01 µM (SK-OV-3) was 102% and the growth at 100 µM (ACHN [11]) was -75%. The growth at 100 µM (HT-29) was -36%, the growth at 100 µM (BT-549) was -65% and the growth at 0.1 µM (CAKI-1 [12]) was 98%. For the same molecule, the growth at 0.1 µM (HCT-116) was 94%, the growth at 1 µM (OVCAR-3) was 86% and the growth at 100 µM (SF-539 [13]) was -38%. The growth at 0.1 µM (HOP-92) was 87%, the growth at 1 µM (IGROV-1) was 101% and the growth at 1 µM (SF-539 [14]) was 92%. It also gave a GI50 (HCT-15; read-out: GI50) of 1.56 µM, an LC50 (50% lethal concentration) (HCT-15; read-out: LC50) greater than 100 µM and a TGI (HCT-15; read-out: TGI) of 19.2 µM. It also gave a GI50 (HCT-15; read-out: pGI50 (converted)) of 1.55 µM, an LC50 (50% lethal concentration) (HCT-15; read-out: pLC50 (converted)) greater than 100 µM and a TGI (HCT-15; read-out: pTGI (converted)) of 19.1 µM. The growth at 0.01 µM (NCI-H226) was 96%, the growth at 1 µM (RXF 393) was 93% and the growth at 1 µM [15] was 90%. It also gave a GI50 (SNB-19; read-out: GI50) of 4.93 µM, a CC50 (SNB-19; [16]) of 74.4 µM and a TGI (SNB-19; read-out: TGI) of 22.5 µM. It also gave a GI50 (SNB-19; read-out: pGI50 (converted)) of 4.9 µM, a CC50 (SNB-19; [17]) of 74.1 µM and a TGI (SNB-19; read-out: pTGI (converted)) of 22.4 µM.
